Results from patent publication US12403130B2, “Pharmaceutical combinations for treating cancer” (Purdue Pharmaceutical Products L.P., priority 2014, dated 2025).
Where two headings read alike, the source gives them in different places.

Tests used:
[1] = test system: U251MG mouse xenograft model; assay: U251MG subcutaneously inoculated xenograft, time to progression; assay type: in vivo
Experimental: (§1) Subcutaneously Inoculated Xenografts
(§2) • Vehicle (control) • Radiotherapy (2Gy/5 consecutive days) • Temozolamide (16 mg/Kg for 5 consecutive days, po) • Temozolamide+radiotherapy • EDO-S101 (60 mg/Kg at day 1, 8 and 15 every 28 days, iv) • EDO-S101+radiotherapy

[2] = test system: U251MG glioblastoma cell line; assay: IC50 against glioblastoma cell line U251MG; assay type: cell-based
[3] = test system: T98G glioblastoma cell line; assay: IC50 against glioblastoma cell line T98G; assay type: cell-based
[4] = test system: U87G glioblastoma cell line; assay: IC50 against glioblastoma cell line U87G; assay type: cell-based
[5] = test system: U87MG mouse xenograft model; assay: U87MG subcutaneously inoculated xenograft, time to progression; assay type: in vivo
Experimental: as §1, §2

[6] = test system: T98G, U251MG and U87MG glioblastoma cell lines; assay: Radiotherapy and EDO-S101 against glioblastoma cell lines in vitro, surviving fraction; assay type: cell-based; conditions: radiotherapy in combination with EDO-S101 (5 μM or 10 μM) compared to radiotherapy alone
Experimental: FIG. 15 is a plot of % surviving fraction of in vitro T98G, U251MG and U87MG glioblastoma cell lines against dose of radiotherapy (Gy) in combination with two different concentrations of the compound of formula I (EDO-S101) against a control with radiotherapy alone.

[7] = test system: Vk*MYC multiple myeloma; assay: Vk*MYC mouse model of multiple myeloma; assay type: in vivo; conditions: mice receiving only two doses, one week apart
Description: A genetic rearrangement of the MYC locus, resulting in dysregulated expression of MYC, is the most common mutation in human multiple myeloma. The genetically engineered Vk*MYC mouse model is based on dysregulation of MYC, and has been extensively validated as a clinically and biologically faithful model of untreated multiple myeloma. Nine drugs or classes of drugs (DNA alkylators, glucocorticoids, proteasome inhibitors, IMiDs, nab-paclitaxel, histone deacetylase inhibitors, TACI-Ig, perifosine and SNS-032, a CDK2, 7, 9 inhibitor) have been previously reported with more than a 20% partial response rate in Vk*MYC MM. Among those, the first five also have greater than 20% PR in patients with multiple myeloma for a positive predictive value of 56%.

[8] = test system: multiple myeloma cell lines; conditions: WO-A-2010/085377; in vitro; cited from earlier work
[9] = test system: Vk12653 transplant model of relapsed/refractory multiple myeloma; assay: Vk12653 transplant model of relapsed/refractory multiple myeloma; assay type: in vivo; conditions: very aggressive, multi-drug resistant model
[10] = unit not given for temozolamide
[11] = combination with radiotherapy (2Gy/5 consecutive days), temozolamide 16 mg/Kg 5 consecutive days po, EDO-S101 60 mg/Kg day 1, 8, 15 iv
[12] = drug alone, EDO-S101 60 mg/Kg at day 1, 8 and 15 every 28 days, iv

Row | Structure (SMILES) | time to progression of the tumours ([1]; mouse, in vivo) [days] | IC50 [2, 10] [µM] | IC50 [3, 10] [µM] | IC50 [4, 10] [µM] | time to progression of the tumours ([5]; mouse, in vivo) [days] | IC50 [2] [µM] | IC50 [3] [µM] | IC50 [4] [µM] | % survival rate for the glioblastoma cells (FIG. 15) [6] | duration of response [7] | rate of response [7] | time to progression of the tumours [1, 11] | time to progression of the tumours [1, 12] | activity relative to the activity shown by bendamustin [8] | IC50 ([2]; Homo sapiens, U-251) [µM] | single agent activity [9] | IC50 ([3]; Homo sapiens) [µM] | time to progression of the tumours [5, 11] | time to progression of the tumours [5, 12] [days]
1 | Cn1nnc2c(C(N)=O)ncn2c1=O [temozolamide] | 42 | 20 | > 100 | 20 | 35 | – | – | – | – | – | – | – | – | – | – | – | – | – | –
2 | Cn1c(CCCC(=O)O)nc2cc(N(CCCl)CCCl)ccc21 [bendamustin] | – | – | – | – | – | 30 | 52 | 50 | – | – | – | – | – | – | – | – | – | – | –
3 | Cn1c(CCCCCCC(=O)NO)nc2cc(N(CCCl)CCCl)ccc21 [EDO-S101] | – | – | – | – | – | – | – | 1.36 | considerably reduced | more than three months | high rate of response | over 50 days | over 50 days | 35-100 × | 6.6 | single agent activity | 7.7 | over 50 days | 40
